Read-outs that look alike come from different tables or passages of the source. Blank lines part the entries; values can stand above or below the compound they belong to.
Experiments:
[1] = Pharmacokinetic evaluation in mice; assay type: in vivo, CD1 female mice; conditions: for F: PO 10 mg/kg vs IV 2 mg/kg; for AUC(0-t): read-out: AUC0-24
Experimental: CD1 female mice were used as test animals and the drug was administered orally/intravenously (oral dosage: 10 mg/kg, intravenous dosage: 2 mg/kg).
Assay protocol: The oral group consisted of 3 mice per group (vehicle: 10% Hβ-CD-pH7.4), and the intravenous group consisted of 3 mice per group. […] The blood concentrations in plasma after oral and intravenous administration of mice were determined by LC/MS/MS, respectively.

[2] = test system: MSI-H colorectal cancer SW48 cell line; assay: 2D anti-proliferative activity, MSI-H SW48 cells (CTG, 5 days); assay type: cell-based; conditions: for inhibition at 38.15 pM: 0.038146973 nM; for inhibition at 0.000152588 µM: 0.152587891 nM; for inhibition at 0.000610352 µM: 0.610351563 nM; for inhibition at 0.00244141 µM: 2.44140625 nM; for inhibition at 0.00976562 µM: 9.765625 nM; for inhibition at 0.0390625 µM: 39.0625 nM; for inhibition at 0.15625 µM: 156.25 nM; for inhibition at 0.625 µM: 625 nM; for inhibition at […]: 2500 nM; for inhibition at 10 µM: 10000 nM; for IC50: 5 days
Experimental: The molecules of the present disclosure were tested for their anti-proliferative activity against MSI-H tumor cells.
The proliferation of tumor cells with microsatellite instability MSI-H is sensitive to WRN inhibitors, while the proliferation of microsatellite stable (MSS) tumor cells is insensitive to WRN inhibitors. By testing the activities of the two, it is shown that the molecules of the present disclosure have an inhibitory and synthetic lethal effect on WRN at the cellular level.
(§1) The MSI-unstable SW48 colorectal cancer cells were cultured in RPMI 1640 medium containing 10% FBS and 1% penicillin-streptomycin in a 37° C., 5% CO2 constant temperature incubator. A 40 μL cell suspension was added to each well of a 384-well microplate. Using Echo, 40 nL of compounds at different concentrations was dispensed into each well, followed by incubation in a 37° C., 5% CO2 constant temperature incubator for 5 days. Then, 40 μL of CTG solution (Promega, Cat No. G7573) was added to each well, and the plate was incubated in the dark in a 37° C., 5% CO2 constant temperature incubator for 30 minutes. Luminescence was measured using an Envision multi-function microplate reader (Perkin Elmer, Model: Envision 2104). The luminescent signal was proportional to the amount of ATP in the system, and the amount of ATP directly represented the number of living cells in the system.

WRN helicase = WRN helicase (Homo sapiens, UniProt Q14191); assay: WRN helicase hydrolysis/unwinding of double-stranded DNA (fluorescence); assay type: biochemical
Sequence of WRN helicase (Q14191 whole entry): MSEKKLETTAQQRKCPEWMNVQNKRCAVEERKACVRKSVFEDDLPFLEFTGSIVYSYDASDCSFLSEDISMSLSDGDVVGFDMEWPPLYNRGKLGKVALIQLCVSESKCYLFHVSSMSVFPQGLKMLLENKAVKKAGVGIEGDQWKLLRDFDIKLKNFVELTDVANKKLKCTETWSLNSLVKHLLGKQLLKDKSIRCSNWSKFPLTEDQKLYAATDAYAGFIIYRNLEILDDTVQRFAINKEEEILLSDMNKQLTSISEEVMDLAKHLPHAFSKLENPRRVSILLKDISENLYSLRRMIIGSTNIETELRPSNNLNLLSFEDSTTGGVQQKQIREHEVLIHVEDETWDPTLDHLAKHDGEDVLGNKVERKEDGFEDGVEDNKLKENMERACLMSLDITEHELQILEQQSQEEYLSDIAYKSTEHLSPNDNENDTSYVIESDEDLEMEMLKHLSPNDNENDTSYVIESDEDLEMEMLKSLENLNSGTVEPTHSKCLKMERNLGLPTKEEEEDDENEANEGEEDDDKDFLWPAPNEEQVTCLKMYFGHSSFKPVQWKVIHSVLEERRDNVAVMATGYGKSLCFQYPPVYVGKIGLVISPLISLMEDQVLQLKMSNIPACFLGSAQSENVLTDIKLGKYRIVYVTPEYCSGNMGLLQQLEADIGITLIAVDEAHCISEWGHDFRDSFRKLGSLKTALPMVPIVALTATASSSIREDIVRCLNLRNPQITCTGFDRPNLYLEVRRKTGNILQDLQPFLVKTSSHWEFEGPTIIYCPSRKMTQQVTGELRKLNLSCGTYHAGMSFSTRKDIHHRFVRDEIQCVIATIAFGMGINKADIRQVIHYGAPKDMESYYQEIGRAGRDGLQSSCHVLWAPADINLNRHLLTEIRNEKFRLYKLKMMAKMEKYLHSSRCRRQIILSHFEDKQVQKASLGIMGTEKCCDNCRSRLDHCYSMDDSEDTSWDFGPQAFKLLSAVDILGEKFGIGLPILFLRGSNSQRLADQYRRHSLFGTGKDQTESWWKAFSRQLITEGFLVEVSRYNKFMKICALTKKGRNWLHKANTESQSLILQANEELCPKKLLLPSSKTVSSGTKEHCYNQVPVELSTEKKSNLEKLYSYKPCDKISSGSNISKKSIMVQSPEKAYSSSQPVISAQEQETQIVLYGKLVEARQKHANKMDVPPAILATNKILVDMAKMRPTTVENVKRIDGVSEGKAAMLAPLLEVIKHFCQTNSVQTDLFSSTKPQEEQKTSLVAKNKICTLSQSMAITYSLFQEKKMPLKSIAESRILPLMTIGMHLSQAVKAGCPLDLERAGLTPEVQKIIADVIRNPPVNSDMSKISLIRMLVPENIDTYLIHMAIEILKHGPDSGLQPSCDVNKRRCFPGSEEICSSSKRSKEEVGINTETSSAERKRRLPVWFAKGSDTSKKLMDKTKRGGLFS
Experimental: The activity of the molecules of the present disclosure on the hydrolysis of double-stranded PP-6TR DNA by WRN helicase was tested.
The working solution and buffer were prepared, and the test compound was dissolved in DMSO followed by a4-fold dilution (with a final concentration of 10 μM as the starting concentration). Then, 0.2 μL of the test compound solution was added to a384-well plate, followed by 10 μL of (2×) WRN enzyme solution. The mixture was incubated in the dark for 30 minutes, after which 10 μL of substrate detection solution containing double-stranded DNA was added to initiate the reaction (DNA length: 19 bp, labeled with TAMRA at the 3′ end and BHQ2 at the 5′ end). The mixture was incubated at room temperature for 60 minutes. The inhibitory activity (IC50) against the WRN enzyme was calculated based on the fluorescence change (Ex530/Em590) between the blank group (DMSO) and the compound group.

[3] = test system: MSS colorectal cancer HT-29 cell line; assay: 2D anti-proliferative activity, MSS HT-29 cells (CTG, 5 days); assay type: cell-based; conditions: Homo sapiens, 120 h
Experimental: The molecules of the present disclosure were tested for their anti-proliferative activity against MSS tumor cells.
as §1, with “MSS HT-29” for “MSI-unstable SW48”, “McCoy's 5A” for “RPMI 1640”

[4] = Liver microsome stability test; assay type: in vitro ADME; conditions: human liver microsomes 0.5 mg/mL, compound 1 μM, NADPH 1 mM, 60 minutes; for microsomal CLint at 1 μM: read-out: Human Clint μL/min/mg Protein
Experimental: The liver microsome stability test of the compounds is as follows:
The compounds of the present disclosure were subjected to a liver microsome stability test. The compounds to be tested were co-incubated with liver microsomes of different species with or without the addition of NADPH. The final concentration of the compounds to be tested in the test system was 1 μM, the final concentration of NADPH was 1 mM, and the final concentration of liver microsomes was 0.5 mg/mL.

[5] = Homo sapiens, read-out: Average value/ Inhibition rate
[6] = Homo sapiens, read-out: Test 1/ Inhibition rate
[7] = Homo sapiens, read-out: Test 2/ Inhibition rate
[8] = female, CD1, mouse, plasma, IV 2 mg/kg
[9] = female, CD1, mouse, plasma, PO 10 mg/kg

SMILES: CCc1c(N2CCN(C(=O)c3ncccc3O)CC2)c(=O)n2nc(-c3cccnc3)nc2n1CC(=O)Nc1ccc(C(F)(F)F)cc1C [Compound A1, reference compound]
F [1]: 14% | inhibition at 38.15 pM [2, 5]: -0.406% | inhibition at 38.15 pM [2, 6]: -2% | inhibition at 38.15 pM [2, 7]: 1.19% | inhibition at 0.000152588 µM [2, 5]: -9.39% | inhibition at 0.000152588 µM [2, 6]: -13.2% | inhibition at 0.000152588 µM [2, 7]: -5.61% | inhibition at 0.000610352 µM [2, 5]: -2.32% | inhibition at 0.000610352 µM [2, 6]: -2.37% | inhibition at 0.000610352 µM [2, 7]: -2.27% | inhibition at 0.00244141 µM [2, 5]: -11.4% | inhibition at 0.00244141 µM [2, 6]: -13.8% | inhibition at 0.00244141 µM [2, 7]: -8.9% | inhibition at 0.00976562 µM [2, 5]: -4.03% | inhibition at 0.00976562 µM [2, 6]: 0.0311% | inhibition at 0.00976562 µM [2, 7]: -8.09% | inhibition at 0.0390625 µM [2, 5]: -11.9% | inhibition at 0.0390625 µM [2, 6]: -12.6% | inhibition at 0.0390625 µM [2, 7]: -11.1% | inhibition at 0.15625 µM [2, 5]: 6.4% | inhibition at 0.15625 µM [2, 6]: -2.14% | inhibition at 0.15625 µM [2, 7]: 14.9% | inhibition at 0.625 µM [2, 5]: 97.4% | inhibition at 0.625 µM [2, 6]: 97.9% | inhibition at 0.625 µM [2, 7]: 96.9% | inhibition at […] [2, 5]: 101% | inhibition at […] [2, 6]: 99.8% | inhibition at […] [2, 7]: 101% | inhibition at 10 µM [2, 5]: 102% | inhibition at 10 µM [2, 6]: 101% | inhibition at 10 µM [2, 7]: 102% | IC50 ([2]; Homo sapiens, 120 h): 261 nM

SMILES: CCc1c(N2CCN(C(=O)c3ncccc3O)CC2)c(=O)n2nc(C3=CCOCC3)nc2n1CC(=O)NC12CC(C(F)(F)F)(C1)C2 [Compound A2, reference compound]
IC50 (WRN helicase): 16 nM | IC50 ([2]; Homo sapiens, 120 h): 2540 nM

SMILES: CCc1c(N2CCN(C(=O)c3ncnc(C)c3O)CC2)c(=O)n2nc(C3=CCOCC3)nc2n1CC(=O)Nc1ccc2c(c1)NCC2(O)C(F)(F)F (stereo not drawn) [Compound H5]
IC50 (WRN helicase): 295 nM

SMILES: CCc1c(N2CCN(C(=O)c3ncccc3O)CC2)c(=O)n2nc(C3=CCOCC3)nc2n1CC(=O)Nc1ccc(C(F)(F)F)c2c1OCCO2 [Compound H7]
IC50 (WRN helicase): 9.5 nM | IC50 ([2]; Homo sapiens, 120 h): 1940 nM

SMILES: CCc1c(N2CCN(C(=O)c3ncnc(C)c3O)CC2)c(=O)n2nc(C3=CCOCC3)nc2n1CC(=O)Nc1ccc2c3c1ncn3CCC2 [Compound H23]
IC50 [3]: > 10000 nM | IC50 ([2]; Homo sapiens, 120 h): > 10000 nM

SMILES: CCc1c(N2CCN(C(=O)c3ncnc(C)c3O)CC2)c(=O)n2nc(C3=CCOCC3)nc2n1CC(=O)Nc1ccc2c3c1ccn3CCC2 [Compound H24]
IC50 ([2]; Homo sapiens, 120 h): 474 nM

SMILES: CCc1c(N2CCN(C(=O)c3ncnc(C)c3O)CC2)c(=O)n2nc(C3=CCOCC3)nc2n1CC(=O)Nc1ccc(Br)c2ccoc12 [Compound H25]
IC50 ([2]; Homo sapiens, 120 h): 125 nM

SMILES: CCc1c(N2CCN(C(=O)c3ncnc(C)c3O)CC2)c(=O)n2nc(C3=CCOCC3)nc2n1CC(=O)Nc1ccc(Cl)c2ccoc12 [Compound H26]
IC50 ([2]; Homo sapiens, 120 h): 137 nM

SMILES: CCc1c(N2CCN(C(=O)c3ncccc3O)CC2)c(=O)n2nc(-c3cccs3)nc2n1CC(=O)Nc1ccc(C(F)(F)F)cc1Cl [Compound P4]
IC50 (WRN helicase): 1.9 nM | IC50 [2]: 135 nM

SMILES: CCc1c(N2CCN(C(=O)c3ncccc3O)CC2)c(=O)n2nc(-c3cncs3)nc2n1CC(=O)Nc1ccc(C(F)(F)F)cc1Cl [Compound P5]
IC50 ([2]; Homo sapiens, 120 h): 192 nM

SMILES: CCc1c(N2CCN(C(=O)c3ncccc3O)CC2)c(=O)n2nc(C3=CCS(=O)(=O)CC3)nc2n1CC(=O)Nc1ccc(C(F)(F)F)cc1Cl [Compound P6]
IC50 (WRN helicase): 3.5 nM

Other lines, results leading:

IC50 (WRN helicase): 71 nM | IC50 [3]: > 10000 nM | IC50 ([2]; Homo sapiens, 120 h): 2560 nM
SMILES: CCc1c(N2CCN(C(=O)c3ncnc(C)c3O)CC2)c(=O)n2nc(C3=CCOCC3)nc2n1CC(=O)Nc1ccc(C(F)(F)F)cc1SC [Compound H4]

IC50 (WRN helicase): 625 nM
SMILES: CCc1c(N2CCN(C(=O)c3ncnc(C)c3O)CC2)c(=O)n2nc(C3=CCOCC3)nc2n1CC(=O)Nc1ccc2c(C(F)(F)F)c[nH]c2c1 [Compound H6]

CLint scaled at 1 μM [4]: 28 mL/min/kg | microsomal CLint at 1 μM [4]: 22 µL/min/mg | IC50 [3]: > 10000 nM | IC50 ([2]; Homo sapiens, 120 h): 126 nM
SMILES: CCc1c(N2CCN(C(=O)c3ncnc(C)c3O)CC2)c(=O)n2nc(C3=CCC(OC)CC3)nc2n1CC(=O)Nc1ccc(C(F)(F)F)c2ccsc12 (stereo not drawn) [Compound H12]

CLint scaled at 1 μM [4]: 2.5 mL/min/kg | microsomal CLint at 1 μM [4]: 2 µL/min/mg | F [1]: 35% | clearance [1, 8]: 50.4 mL/min/kg | half-life [1, 8]: 18 min | AUC(0-t) [1, 8]: 655 ng·h/mL | C0 ([1]; female, CD1, mouse, plasma, IV 2 mg/kg, read-out: C0): 1740 ng/mL | half-life [1, 9]: 114 min | AUC(0-t) [1, 9]: 1050 ng·h/mL | Cmax ([1]; female, CD1, mouse, plasma, PO 10 mg/kg, read-out: Cmax): 693 ng/mL | Tmax ([1]; female, CD1, mouse, plasma, PO 10 mg/kg, read-out: Tmax): 15 min | IC50 [3]: > 10000 nM | IC50 ([2]; Homo sapiens, 120 h): 101 nM
SMILES: CCc1c(N2CCN(C(=O)c3ncnc(C)c3O)CC2)c(=O)n2nc(C3=CCOCC3)nc2n1CC(=O)Nc1ccc(Br)c2ccsc12 [Compound H15]

IC50 [3]: > 10000 nM | IC50 ([2]; Homo sapiens, 120 h): 123 nM
SMILES: CCc1c(N2CCN(C(=O)c3ncnc(C)c3O)C[C@@H]2C)c(=O)n2nc(C3=CCOCC3)nc2n1CC(=O)Nc1ccc(C(F)(F)F)c2ccsc12 [Compound H17]

IC50 [3]: > 10000 nM
SMILES: Cc1ncnc(C(=O)N2CCN(c3c(C4CC4)n(CC(=O)Nc4ccc(C(F)(F)F)c5ccsc45)c4nc(C5=CCOCC5)nn4c3=O)CC2)c1O [Compound H18]

CLint scaled at 1 μM [4]: 6 mL/min/kg | microsomal CLint at 1 μM [4]: 4.8 µL/min/mg | IC50 [3]: > 10000 nM | IC50 ([2]; Homo sapiens, 120 h): 175 nM
SMILES: CCc1c(N2CCN(C(=O)c3ncnc(C)c3O)CC2)c(=O)n2nc(C3=CCOCC3)nc2n1CC(=O)Nc1ccc(C(F)(F)F)c2scnc12 [Compound H21]

IC50 (WRN helicase): 3890 nM
SMILES: CCc1c(N2CC3(CN(C(=O)c4ncnc(C)c4O)C3)C2)c(=O)n2nc(C3=CCOCC3)nc2n1CC(=O)Nc1ccc(C(F)(F)F)cc1Cl [Compound P1]
